From US12594317B2 (priority 2020, dated 2026)

Test system: HEK293 cell line stably expressing ACE2 receptor infected by COVID-19 pseudovirus
Type: cell-based, human
Settings: positive control group, 10 μL of 100 μM solution per well, 48 h

CCN(CC)CCCC(C)Nc1ccnc2cc(Cl)ccc12 (stereo not shown) [chloroquine phosphate]
RLU/RLUc value (ratio of fluorescence value of test group to average fluorescence intensity of negative control group): 0.05±0.01
